This is an account of results in PubChem BioAssay (NCI).

Among the test systems are KM12 colon; ACHN renal; U251 CNS; SF-295 CNS; T-47D breast; MOLT-4 leukemia; SNB-19 CNS; SK-MEL-5 melanoma; EKVX NSCLC; NCI-H522 lung; TK-10 renal; OVCAR-4 ovarian; PC-3 prostate; RXF 393 renal; HOP-62 NSCLC; HS 578T breast; OVCAR-8 ovarian; MCF7 breast.
Common to all, as to test: growth of human tumour cells (NCI), 48 h

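All cell lines were grown in 96-well plates and treated with compound for 48 hours. Definition used: TGI = concentration required for complete inhibition of growth.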 Where a SMILES comes first, the peptide text is derived from it. The star is where a group is joined. Boc = CC(C)(C)OC(=O)*

As for `COc1cc(C2=C(C)[C@@H]3CN(CC=C3c3ccc(Cl)cc3)C2)c(S(=O)(=O)O)cc1OC`, the TGI in the assay with KM12 colon, in the assay on ACHN renal, in the assay with U251 CNS, with SF-295 CNS, in the assay on T-47D breast and in the assay with MOLT-4 leukemia was over 100 µM throughout. The TGI in the assay on SNB-19 CNS, in the assay with SK-MEL-5 melanoma, with EKVX NSCLC, in the assay with NCI-H522 lung, with TK-10 renal and in the assay on OVCAR-4 ovarian was over 100 µM throughout. Also, the TGI in the assay with PC-3 prostate, with RXF 393 renal, in the assay with HOP-62 NSCLC, in the assay on HS 578T breast and in the assay on OVCAR-8 ovarian was over 100 µM in each case.
Regarding `Cc1ccc(/C=N/Nc2cc(C)c3ccccc3n2)s1`, the TGI with KM12 colon is 38.5 µM; in the assay with ACHN renal, 45.4 µM; in the assay on U251 CNS, 43 µM; in the assay with SF-295 CNS it was 32 µM; with T-47D breast, over 100 µM; with MOLT-4 leukemia it was 45.1 µM. Besides, the TGI in the assay on SNB-19 CNS was over 100 µM; in the assay on SK-MEL-5 melanoma, 75.2 µM; in the assay on EKVX NSCLC it was 27 µM; in the assay with TK-10 renal, over 100 µM; in the assay with OVCAR-4 ovarian, over 100 µM; in the assay with PC-3 prostate it was 31.1 µM. For the same molecule, the TGI is 75.5 µM in the assay on RXF 393 renal; 39.6 µM in the assay with MCF7 breast; 30.8 µM with HOP-62 NSCLC; over 100 µM in the assay with HS 578T breast; over 100 µM in the assay with OVCAR-8 ovarian.
Regarding `COC(=O)/C=C\[C@@H]1[C@H](C)N1S(=O)(=O)c1ccc(C)cc1` (stereo partly specified), the TGI in the assay with ACHN renal, with U251 CNS, in the assay on SF-295 CNS, in the assay with T-47D breast, with MOLT-4 leukemia and with SNB-19 CNS was over 100 µM throughout. Moreover, the TGI in the assay with SK-MEL-5 melanoma, in the assay with NCI-H522 lung, in the assay with TK-10 renal, in the assay on OVCAR-4 ovarian, in the assay with PC-3 prostate and in the assay with RXF 393 renal was over 100 µM each time. The TGI in the assay on MCF7 breast, with HOP-62 NSCLC, with HS 578T breast and with OVCAR-8 ovarian was over 100 µM each time.
For the molecule `C[n+]1c2ccccc2c(C(=O)NC(CCCN=C(N)N)C(=O)O)c2ccccc21` (stereo unspecified), the TGI in the assay on KM12 colon, in the assay with ACHN renal, in the assay on U251 CNS, in the assay with SF-295 CNS, with T-47D breast and with MOLT-4 leukemia was over 100 µM in each case. Besides, the TGI with SNB-19 CNS, with SK-MEL-5 melanoma, in the assay on EKVX NSCLC, in the assay with TK-10 renal, with OVCAR-4 ovarian and with PC-3 prostate was over 100 µM in each case. Further, the TGI in the assay on MCF7 breast, in the assay on HOP-62 NSCLC, in the assay on HS 578T breast and in the assay on OVCAR-8 ovarian was over 100 µM throughout.
Regarding `COc1cc(OC)cc(-n2c(N)c(-c3nc4ccccc4s3)c3ccc([N+](=O)[O-])cc3c2=O)c1`, the TGI is over 100 µM in the assay on KM12 colon; 41.7 µM in the assay on ACHN renal; over 100 µM in the assay on U251 CNS; over 100 µM with SF-295 CNS; over 100 µM with T-47D breast; over 100 µM in the assay on SNB-19 CNS. Besides, the TGI was over 100 µM in the assay on SK-MEL-5 melanoma; over 100 µM in the assay with NCI-H522 lung; 38.8 µM in the assay on TK-10 renal; 78.9 µM in the assay with OVCAR-4 ovarian; over 100 µM in the assay on MCF7 breast; over 100 µM in the assay with HS 578T breast. Further, in the assay with OVCAR-8 ovarian, the TGI was over 100 µM.
`CN(C)Cc1cc(C(=O)/C=C/c2ccc(Br)cc2)cc(CN(C)C)c1O`: the TGI with KM12 colon turned out to be 5.88 µM; with ACHN renal it was 15 µM; in the assay with U251 CNS it was 33.5 µM; with SF-295 CNS, 19 µM; in the assay on T-47D breast, 37.9 µM; in the assay on MOLT-4 leukemia, 19.6 µM. Besides, the TGI with SNB-19 CNS came out at 26.6 µM; in the assay with SK-MEL-5 melanoma, 28.5 µM; in the assay on EKVX NSCLC, 36.3 µM; with NCI-H522 lung, 12.6 µM; with TK-10 renal, 27.4 µM; in the assay with OVCAR-4 ovarian it was 28.8 µM. Also, the TGI in the assay with PC-3 prostate came out at 10.2 µM; in the assay with RXF 393 renal, 17.1 µM; in the assay on HOP-62 NSCLC, 17.2 µM; in the assay with HS 578T breast it was 45.1 µM; in the assay with OVCAR-8 ovarian it was 20.8 µM.
For the molecule `COc1ccc(/C=N/NC(=O)c2ccccc2Nc2ccccc2C(=O)N/N=C/c2ccc(OC)cc2)cc1`, the TGI in the assay on KM12 colon, with ACHN renal, in the assay on U251 CNS, in the assay with SF-295 CNS, in the assay with T-47D breast and with MOLT-4 leukemia was over 100 µM in each case. The TGI with SNB-19 CNS, in the assay with SK-MEL-5 melanoma, with EKVX NSCLC, with TK-10 renal, in the assay with OVCAR-4 ovarian and in the assay with PC-3 prostate was over 100 µM in each case. The TGI with RXF 393 renal, in the assay on MCF7 breast, in the assay with HOP-62 NSCLC and with OVCAR-8 ovarian was over 100 µM in each case.
Take `COC(=O)C(Cc1c[nH]c2ccccc12)NC(=O)C(Cc1c[nH]c2ccccc12)NC(=O)C(Cc1c[nH]c2ccccc12)NC(=O)OC(C)(C)C` (stereo not drawn) (Boc-Trp-Trp-Trp-OMe; configuration not given here): the TGI with KM12 colon came out at 38.2 µM; with ACHN renal it was 32.5 µM; in the assay on U251 CNS it was 32.4 µM; in the assay on T-47D breast, 29.4 µM; in the assay with MOLT-4 leukemia, 39.9 µM; in the assay with SNB-19 CNS, 47 µM. Further, the TGI in the assay with SK-MEL-5 melanoma was over 100 µM; with EKVX NSCLC, over 100 µM; in the assay with TK-10 renal it was 46.7 µM; with PC-3 prostate it was 30 µM; with RXF 393 renal, 21 µM; in the assay on HOP-62 NSCLC, 32.7 µM. The TGI came out at 48.4 µM in the assay with HS 578T breast and 38.8 µM in the assay with OVCAR-8 ovarian.
As to `CC(NC1=NCCO1)c1cccs1` (stereo unspecified), the TGI in the assay on KM12 colon was 31.7 µM; in the assay with ACHN renal, over 100 µM; with U251 CNS it was 39.6 µM; in the assay with SF-295 CNS, 31 µM; in the assay on T-47D breast, over 100 µM; in the assay on MOLT-4 leukemia, over 100 µM. For the same molecule, the TGI in the assay on SNB-19 CNS is 55.9 µM; in the assay with SK-MEL-5 melanoma it was 75.1 µM; in the assay on EKVX NSCLC, over 100 µM; in the assay with TK-10 renal, over 100 µM; in the assay on OVCAR-4 ovarian, over 100 µM; in the assay on MCF7 breast, 55.9 µM. The TGI with HOP-62 NSCLC is 66.5 µM; in the assay on HS 578T breast, over 100 µM; with OVCAR-8 ovarian it was over 100 µM.
